We go through 23 compounds from PubChem BioAssay (NCI).

Common to all, as to experiment: growth of human tumour cells (NCI), 48 h
Experiment [1] relates to 786-0 renal.
In experiment [2] the test system is EKVX NSCLC.
In experiment [3] the test system is IGROV1 ovarian.
Experiment [4] has as its system KM12 colon.
In experiment [5] the test system is NCI-H460 lung.
Experiment [6] concerns RXF 393 renal.
In experiment [7] the test system is SF-268 CNS.
The subject of experiment [8] is SF-539 CNS.
Experiment [9] deals with HCT-15 colon.
The test system of experiment [10] is CAKI-1 renal.

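Five compound concentrations were applied to cells in 96-well plates for 48 hours; endpoints were derived by simple linear interpolation of the resulting dose-response curve. GI50 = concentration required for 50% inhibition of growth. TGI: concentration producing complete growth inhibition.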 Some results are limits rather than exact numbers.

On to `COC1(OC)CC2C=C(S(=O)(=O)c3ccccc3)C1N(Cc1ccccc1)C2=O` (stereo not drawn), for which the TGI in experiment [1] is over 100 µM; in experiment [2], over 100 µM; in experiment [3] it was over 100 µM; in experiment [4] it was 92.3 µM; in [5], over 100 µM; in [6] it was 49.8 µM. For the same compound, the TGI is over 100 µM in experiment [7] and 44.9 µM in experiment [8].
In the case of `CCOc1ccc([C@@H]2[C@@H](Oc3ccccc3)C(=O)N2c2cc(OC)c(OC)c(OC)c2)cc1`, the GI50 is 0.0896 µM in experiment [1]; 0.0937 µM in experiment [2]; 0.186 µM in [9]; 0.15 µM in [3]; 0.0525 µM in [4]; 0.285 µM in [5]. Also, the figures for the GI50 in experiment [6] and in experiment [7] were 0.0446 µM and 0.0975 µM, respectively. For the same compound, the TGI in experiment [1], in experiment [2], in [9], in [3], in [4] and in [5] was over 100 µM each time. Further, the TGI in experiment [6] and in experiment [7] was over 100 µM throughout.
For `Cc1ccc(NC(=O)NC(=O)c2ccc([N+](=O)[O-])cc2[N+](=O)[O-])cc1Oc1ncc(Cl)cn1`, the TGI was 13.8 µM in [1]; 62.9 µM in experiment [10]; 11.2 µM in experiment [9]; 29.7 µM in experiment [3]; 6.83 µM in experiment [4]; 14.8 µM in [5]. For the same compound, the TGI in experiment [7] turned out to be 21.8 µM; in [8] it was 0.91 µM.
Turning to `N/N=C1\C(=O)N(C2CCCCC2)C(=O)C1C(=O)NC1CCCCC1` (stereo not drawn), the TGI in experiment [1], in [10], in experiment [2], in experiment [9], in experiment [3] and in experiment [4] was over 100 µM in each case. Moreover, the TGI in experiment [5], in experiment [7] and in [8] was over 100 µM in each case.
With `CCCCCCCC/C=C/CCCCCCCCC1=NCCN1CCO`, the GI50 in [1] is 5.49 µM; in experiment [10], 3.61 µM; in experiment [9], 2.42 µM; in experiment [3] it was 2.58 µM; in experiment [4] it was 2.71 µM; in experiment [5] it was 1.81 µM. Besides, the GI50 in experiment [6] was 3.88 µM; in [7] it was 3.66 µM; in [8], 1.64 µM. The TGI in experiment [1] was found to be 28 µM; in [10], 14.8 µM; in [9], 7.58 µM; in experiment [3], 6.19 µM; in experiment [4], 7.64 µM; in experiment [5], 3.32 µM. Also, the results for the TGI in experiment [6], in experiment [7] and in [8] were 19.6 µM, 16.2 µM and 3.02 µM, respectively.
As for `CCOC(=O)N1CCc2cc(OC)c(OC)c3c2C1CC3=O` (stereo not drawn), the TGI in experiment [1], in [10], in experiment [9], in experiment [3], in experiment [4] and in experiment [5] was over 100 µM each time. Further, the TGI in [6], in experiment [7] and in experiment [8] was over 100 µM each time.
`COc1ccc(/C(=N/NC(=O)NN)C(c2ccc(OC)cc2)C2(O)CNc3c(Cl)cc(Cl)cc32)cc1` (stereo not drawn): the TGI in [1], in [2], in [9], in [3], in [4] and in [5] was over 100 µM in each case. The TGI in experiment [6], in experiment [7] and in [8] was over 100 µM each time.
Take `COc1cccc(C2C(C#N)=C(N)Oc3cc(N)ccc32)c1` (stereo not drawn): the GI50 is 0.632 µM in experiment [1]; 0.47 µM in experiment [10]; 0.854 µM in experiment [2]; 0.385 µM in experiment [9]; 0.854 µM in experiment [3]; 0.442 µM in [4]. The GI50 is 0.368 µM in experiment [5], 1.57 µM in [7] and 0.343 µM in experiment [8]. The TGI in experiment [1] is over 100 µM; in experiment [10], over 100 µM; in experiment [2], over 100 µM; in [9] it was over 100 µM; in experiment [3], over 100 µM; in [4], 45.9 µM. Also, the TGI in experiment [5] was over 87 µM; in experiment [7] it was over 100 µM; in [8], 1.37 µM.
Regarding `CC(=O)N1CC(Nc2ccc(OC(F)(F)F)cc2)=CC1=O`, the GI50 in experiment [1] was 3.27 µM; in experiment [10] it was 3.05 µM; in experiment [9], 0.45 µM; in experiment [3], 7.81 µM; in experiment [4] it was 0.562 µM; in experiment [5], 0.696 µM. Also, the GI50 in experiment [6] was 1.65 µM; in experiment [7], 14.4 µM; in [8] it was 1.31 µM. In addition, the TGI in experiment [1] was over 100 µM; in experiment [10], over 100 µM; in experiment [9], over 100 µM; in experiment [3], over 100 µM; in [4], 25.1 µM; in experiment [5], over 100 µM. The results for the TGI in experiment [6], in experiment [7] and in experiment [8] were 5.92 µM, over 100 µM and 9.01 µM, respectively.
As to `Cc1cc(N(CCC#N)S(C)(=O)=O)ccc1C=O`, the TGI in [1], in experiment [10], in experiment [9], in experiment [3], in experiment [4] and in [5] was over 100 µM each time. Also, the TGI in experiment [6], in experiment [7] and in experiment [8] was over 100 µM each time.
Consider `Cc1cc2cc3cc(C)c(N(C)C)cc3nc2cc1N(C)C`, for which the GI50 is 3.87 µM in experiment [1]; 2.22 µM in experiment [10]; 12.1 µM in experiment [9]; 4.96 µM in [3]; 1.66 µM in [4]; 2.37 µM in [5]. The GI50 in [6] is 7.14 µM; in [7], 3.45 µM; in experiment [8], 3.08 µM. Moreover, the TGI in experiment [1] is 16.3 µM; in [10] it was 25.3 µM; in experiment [9], over 100 µM; in [3], over 100 µM; in experiment [4], 6.22 µM; in [5], 11.5 µM. Moreover, the TGI is 31.2 µM in experiment [6], 15.1 µM in experiment [7] and 12.7 µM in [8].
On to `C=C/C=C(\NC(=O)C(Cl)(Cl)Cl)[Si](C)(C)C`, for which the TGI in experiment [1], in experiment [2], in experiment [9], in experiment [3], in experiment [4] and in [5] was over 100 µM in each case. Further, the TGI in experiment [6], in experiment [7] and in experiment [8] was over 100 µM throughout.
As for `CS(=O)CCCCCN=C=S` (stereo not drawn), the GI50 in experiment [1] was 5.68 µM; in experiment [10] it was 3.69 µM; in [2], 10.4 µM; in experiment [9] it was 2.9 µM; in [3] it was 4.88 µM; in [4] it was 3.33 µM. The GI50 in experiment [5] is 2.53 µM; in [6], 3.37 µM; in [7] it was 4.06 µM. Besides, the TGI in experiment [1] came out at 19.5 µM; in experiment [10], 13.8 µM; in experiment [2] it was 24.8 µM; in [9], 12.1 µM; in [3], 21.6 µM; in experiment [4], 13 µM. Besides, the TGI in experiment [5] came out at 6.64 µM; in experiment [6] it was 9.45 µM; in experiment [7], 17.4 µM.
In the case of `COc1ccc2oc3c4c2c1CCC4CCC3=O` (stereo not drawn), the TGI in experiment [1], in [2], in [3], in experiment [4], in experiment [5] and in [6] was over 100 µM each time. For the same compound, the TGI in [7] and in [8] was over 100 µM in each case.
As to `Cc1ccc(-c2nc(SCC(=O)O)n[nH]2)cc1`, the TGI in [1], in experiment [10], in experiment [2], in experiment [9], in experiment [3] and in experiment [4] was over 100 µM in each case. Besides, the TGI in [5], in experiment [7] and in experiment [8] was over 100 µM throughout.
Consider `CCC[CH2][Sn]([CH2]CCC)([O]C(=O)c1cc(F)cc(F)c1)[O]C(=O)c1cc(F)cc(F)c1`, for which the GI50 was 1.25 µM in experiment [1]; 1.29 µM in [2]; 1.17 µM in experiment [9]; 1.55 µM in experiment [3]; 1.63 µM in [4]; 1.54 µM in experiment [5]. Besides, the GI50 in experiment [6] was 0.349 µM; in [7] it was 1.09 µM; in [8] it was 1.52 µM. Besides, the TGI in [1] was 2.49 µM; in experiment [2], 2.55 µM; in [9], 2.41 µM; in experiment [3], 2.94 µM; in experiment [4] it was 3 µM; in [5], 3.02 µM. In addition, the TGI worked out at 1.33 µM in [6], 2.34 µM in experiment [7] and 2.89 µM in experiment [8].
`O=P(O)(O)c1ccccc1` (tested in a mixture with another compound): the TGI in [1], in [10], in [2], in experiment [9], in experiment [3] and in [4] was over 100 µM throughout. Also, the TGI in [5], in experiment [6] and in [7] was over 100 µM in each case.
As for `CCN(CC)c1cc(/C=C/c2ccc(OC)c(OC)c2)nc2cc(F)c(F)cc12`, the GI50 in [1] was 1.98 µM; in experiment [10] it was 19 µM; in experiment [9], 22.8 µM; in experiment [3], 3.46 µM; in experiment [4] it was over 100 µM; in experiment [5] it was 67.8 µM. The GI50 in experiment [6] was 1.8 µM; in [7], 3.15 µM; in experiment [8], 10.4 µM. Besides, the TGI in experiment [1] is 4.77 µM; in [10], over 100 µM; in experiment [9], over 100 µM; in experiment [3], 12 µM; in experiment [4] it was over 100 µM; in experiment [5], over 100 µM. Moreover, the TGI in [6] is 4.01 µM; in experiment [7], 11.4 µM; in [8] it was 92.9 µM.
Regarding `COC1=CC(O)(CC(N)=O)c2ccccc2C1=O` (stereo not drawn), the TGI in [1], in experiment [10], in experiment [2], in [9], in experiment [3] and in [4] was over 100 µM in each case. In addition, the TGI in experiment [5], in experiment [6] and in experiment [7] was over 100 µM throughout.
With `Cc1ccc(C2NC(=S)NC3=C2CCOc2c3ccc3ccccc23)cc1` (stereo not drawn), the GI50 is over 100 µM in experiment [1]; 3.07 µM in [10]; over 100 µM in experiment [9]; 8.25 µM in experiment [4]; 64.8 µM in [5]; 4.83 µM in [6]. The GI50 in experiment [7] was 96 µM; in experiment [8], over 100 µM. Moreover, the TGI was over 100 µM in [1]; 11.7 µM in experiment [10]; over 100 µM in experiment [9]; over 100 µM in experiment [4]; over 100 µM in [5]; over 100 µM in experiment [6]. Besides, the TGI in experiment [7] and in [8] was over 100 µM throughout.
As to `CN(C)c1ccc(N=Cc2c([O-])ccc3ccccc23)cc1.[C-]#[O+].[C-]#[O+].[Ir]`, the GI50 in experiment [1] is 25.1 µM; in experiment [10], 22 µM; in experiment [2] it was 24.9 µM; in [3] it was 21.1 µM; in experiment [4], 18 µM; in experiment [7], 22.5 µM. In addition, in experiment [8], the GI50 is 19.9 µM. In addition, the TGI in experiment [1] came to 65.1 µM; in experiment [10], 40.7 µM; in experiment [2], 64.6 µM; in [3], 65 µM; in [4], 37.7 µM; in experiment [7] it was 50.6 µM. The compound further registered a TGI in [8] of 40.7 µM.
Regarding `COc1cc2c(cc1OC)-c1cc3cc(OC)c(OC)cc3n1CC2`, the TGI in [1] is 66.6 µM; in experiment [10] it was over 100 µM; in experiment [2] it was over 100 µM; in experiment [3], over 100 µM; in experiment [4], over 100 µM; in experiment [5], over 100 µM. This compound had a TGI in experiment [7] of over 100 µM.
On to `COc1ccc(/C=C2\CCCCC2=O)cc1`, for which the TGI in experiment [1], in experiment [10], in experiment [2], in experiment [9], in [3] and in [5] was over 100 µM each time. Also, the TGI in experiment [7] and in experiment [8] was over 100 µM throughout.
